From patent US12402624B2, “Polymorphs of mesotrione metal chelate and preparation process” (priority 2017, dated 2025)

Assay: Particle size distribution (D50, D90) of the polymorph
Type: physicochemical
Settings: for Particle size D(0.9): D90; for Particle size D(0.5): median diameter D50
[1] = listed as Mesotrione copper chelate form II-a
[2] = listed as Mesotrione copper chelate form II-b
[3] = listed as Mesotrione copper chelate form I-a
[4] = listed as Mesotrione copper chelate form I-b

| Substance | Particle size D(0.9) [1] [μm] | Particle size D(0.9) [2] [μm] | Particle size D(0.5) [1] [μm] | Particle size D(0.5) [2] [μm] | Particle size D(0.9) [3] [μm] | Particle size D(0.9) [4] [μm] | Particle size D(0.5) [3] [μm] | Particle size D(0.5) [4] [μm] |
| --- | --- | --- | --- | --- | --- | --- | --- | --- |
| mesotrione copper chelate [Mesotrione copper chelate form II] | 34.08 | 27.33 | 17.58 | 16.74 | – | – | – | – |
| mesotrione copper chelate [Mesotrione copper chelate form I] | – | – | – | – | 13.02 | 13.22 | 7.94 | 7.62 |
